Counter-ions that a name gives are not always drawn.
target: T1, human V1a receptor (Homo sapiens, UniProt P37288); assay: human V1a receptor binding (3H-Vasopressin SPA, HEK293 membranes); details: membranes of HEK293 cells transiently transfected with human V1a receptor, Ki by Cheng-Prussoff
T1 construct: expressed in transfected cells; host or cells: HEK293 cells, transiently transfected; membranes prepared
Procedure: The human V1a receptor was cloned by RT-PCR from total human liver RNA. The coding sequence was subcloned in an expression vector after sequencing to confirm the identity of the amplified sequence. […] Cell membranes were prepared from HEK293 cells transiently transfected with the expression vector and grown in 20 liter fermenters with the following protocol.
50 g of cells are resuspended in 30 ml freshly prepared ice cold Lysis buffer (50 mM HEPES, 1 mM EDTA, 10 mM magnesium dichloride adjusted to pH=7.4+complete cocktail of protease inhibitor (Roche Diagnostics)). Homogenized with Polytron for 1 min and sonicated on ice for 2×2 minutes at 80% intensity (Vibracell sonicator). The preparation is centrifuged 20 min at 500 g at 4° C., the pellet is discarded and the supernatant centrifuged 1 hour at 43,000 g at 4° C. (19,000 rpm). The pellet is resuspended in 12.5 ml Lysis buffer+12.5 ml sucrose 20% and homogenized using a Polytron for 1-2 min. The protein concentration is determined by the Bradford method and aliquots are stored at −80° C. until use. For binding studies 60 mg Yttrium silicate SPA beads (Amersham®) are mixed with an aliquot of membrane in binding buffer (50 mM Tris, 120 mM sodium chloride, 5 mM potassium chloride, 2 mM calcium dichloride, 10 mM magnesium dichloride) for 15 minutes with mixing. 50 μl of bead/membrane mixture is then added to each well of a 96 well plate, followed by 50 μl of 4 nM 3H-Vasopressin (American Radiolabeled Chemicals). For total binding measurement 100 μl of binding buffer are added to the respective wells, for non-specific binding 100 μl of 8.4 mM cold vasopressin and for compound testing 100 μl of a serial dilution of each compound in 2% dimethyl sulfoxide. The plate is incubated 1 h at room temperature, centrifuged 1 min at 1000 g and counted on a Packard Top-Count. Non-specific binding counts are subtracted from each well and data is normalized to the maximum specific binding set at 100%. To calculate an IC50 the curve is fitted using a non-linear regression model (XLfit) and the Ki is calculated using the Cheng-Prussoff equation.

T1 sequence (P37288 whole entry): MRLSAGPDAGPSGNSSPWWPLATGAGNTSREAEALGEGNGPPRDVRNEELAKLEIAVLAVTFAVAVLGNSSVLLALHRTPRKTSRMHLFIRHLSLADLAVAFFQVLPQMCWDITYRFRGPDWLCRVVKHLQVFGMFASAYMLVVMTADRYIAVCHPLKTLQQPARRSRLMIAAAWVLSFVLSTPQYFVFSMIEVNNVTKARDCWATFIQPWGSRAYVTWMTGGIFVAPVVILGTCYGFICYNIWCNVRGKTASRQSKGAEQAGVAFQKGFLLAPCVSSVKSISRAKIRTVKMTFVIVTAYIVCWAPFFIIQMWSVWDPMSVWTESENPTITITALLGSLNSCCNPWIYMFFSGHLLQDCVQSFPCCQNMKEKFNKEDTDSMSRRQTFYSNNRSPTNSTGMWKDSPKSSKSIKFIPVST

For `Cc1cc([C@H]2CC[C@H](c3nnc4n3-c3ccc(Cl)cc3CN(C(C)C)C4)CC2)no1` [Example 26, trans-8-Chloro-5-isoproyl-1-[4-(5-methyl-isoxazol-3-yl)-cyclohexyl]-5,6-dihydro-4H-2,3,5,10b-tetraaza-benzo[e]azulene], the “pKi (hV1a)” value was 9.45.

same assay, conditions: membranes of HEK293 cells transiently transfected with human V1a receptor, Ki by Cheng-Prussoff, read-out: pKi (hV1a) (converted)

Compared with `Cc1nc([C@H]2CC[C@H](c3nnc4n3-c3ccc(Cl)cc3CN(C)C4)CC2)ns1` (stereo in doubt) [Example 97, trans-8-Chloro-5-methyl-1-[4-(5-methyl-[1,2,4]thiadiazol-3-yl)-cyclohexyl]-5,6-dihydro-4H-2,3,5,10b-tetraaza-benzo[e]azulene], `Cc1nc([C@H]2CC[C@H](c3nnc4n3-c3ccc(Cl)cc3CN(C)C4)CC2)cs1` [Example 21, trans-8-Chloro-5-methyl-1-[4-(2-methyl-thiazol-4-yl)-cyclohexyl]-5,6-dihydro-4H-2,3,5,10b-tetraaza-benzo[e]azulene] is 1.7-fold lower in Ki: 2.88 nM for the first, 1.7 nM for the second.

First: CC(C)(C)OC(=O)N1Cc2cc(Cl)ccc2-n2c(nnc2[C@H]2CC[C@H](c3ncco3)CC2)C1 [Example 1, trans-8-Chloro-1-(4-oxazol-2-yl-cyclohexyl)-4H,6H-2,3,5,10b-tetraaza-benzo[e]azulene-5-carboxylic acid tert-butyl ester]
Second: Cc1cnc([C@H]2CC[C@H](c3nnc4n3-c3ccc(Cl)cc3CN(C(=O)OC(C)(C)C)C4)CC2)o1 [Example 7, trans-8-Chloro-1-[4-(5-methyl-oxazol-2-yl)-cyclohexyl]-4H,6H-2,3,5,10b-tetraaza-benzo[e]azulene-5-carboxylic acid tert-butyl ester]
The Ki of the first is 1.7-fold higher: 1 nM for the first, 0.603 nM for the second.

Going from `Clc1ccc2c(c1)CNCc1nnc([C@H]3CC[C@H](c4ncco4)CC3)n1-2` [Example 2, trans-8-Chloro-1-(4-oxazol-2-yl-cyclohexyl)-5,6-dihydro-4H-2,3,5,10b-tetraaza-benzo[e]azulene] to `Cc1cnc([C@H]2CC[C@H](c3nnc4n3-c3ccc(Cl)cc3CNC4)CC2)o1` [Example 8, trans-8-Chloro-1-[4-(5-methyl-oxazol-2-yl)-cyclohexyl]-5,6-dihydro-4H-2,3,5,10b-tetraaza-benzo[e]azulene], the Ki falls from 53.7 nM to 18.6 nM (2.9-fold).

Compared with `CN1Cc2cc(Cl)ccc2-n2c(nnc2[C@H]2CC[C@H](c3ncco3)CC2)C1` [Example 3, trans-8-Chloro-5-methyl-1-(4-oxazol-2-yl-cyclohexyl)-5,6-dihydro-4H-2,3,5,10b-tetraaza-benzo[e]azulene], `Cc1cnc([C@H]2CC[C@H](c3nnc4n3-c3ccc(Cl)cc3CN(C)C4)CC2)o1` [Example 9, trans-8-Chloro-5-methyl-1-[4-(5-methyl-oxazol-2-yl)-cyclohexyl]-5,6-dihydro-4H-2,3,5,10b-tetraaza-benzo[e]azulene] is 4.8-fold lower in Ki: 10.5 nM for the first, 2.19 nM for the second.

`Cc1coc([C@H]2CC[C@H](c3nnc4n3-c3ccc(Cl)cc3CN(C(=O)OC(C)(C)C)C4)CC2)n1` [Example 4, trans-8-Chloro-1-[4-(4-methyl-oxazol-2-yl)-cyclohexyl]-4H,6H-2,3,5,10b-tetraaza-benzo[e]azulene-5-carboxylic acid tert-butyl ester] and `Cc1nc([C@H]2CC[C@H](c3nnc4n3-c3ccc(Cl)cc3CN(C(=O)OC(C)(C)C)C4)CC2)oc1C` [Example 10, trans-8-Chloro-1-[4-(4,5-dimethyl-oxazol-2-yl)-cyclohexyl]-4H,6H-2,3,5,10b-tetraaza-benzo[e]azulene-5-carboxylic acid tert-butyl ester] are within 1.5-fold of each other in Ki: 0.398 nM for the first, 0.525 nM for the second.

Going from `Cc1coc([C@H]2CC[C@H](c3nnc4n3-c3ccc(Cl)cc3CNC4)CC2)n1` [Example 5, trans-8-Chloro-1-[4-(4-methyl-oxazol-2-yl)-cyclohexyl]-5,6-dihydro-4H-2,3,5,10b-tetraaza-benzo[e]azulene] to `Cc1coc([C@H]2CC[C@H](c3nnc4n3-c3ccc(Cl)cc3CN(C)C4)CC2)n1` [Example 6, trans-8-Chloro-5-methyl-1-[4-(4-methyl-oxazol-2-yl)-cyclohexyl]-5,6-dihydro-4H-2,3,5,10b-tetraaza-benzo[e]azulene], the Ki falls from 32.4 nM to 3.31 nM (9.8-fold).

First: Cc1nc([C@H]2CC[C@H](c3nnc4n3-c3ccc(Cl)cc3CNC4)CC2)oc1C [Example 11, trans-8-Chloro-1-[4-(4,5-dimethyl-oxazol-2-yl)-cyclohexyl]-5,6-dihydro-4H-2,3,5,10b-tetraaza-benzo[e]azulene]
Second: Cc1nc([C@H]2CC[C@H](c3nnc4n3-c3ccc(Cl)cc3CN(C)C4)CC2)oc1C [Example 12, trans-8-Chloro-5-methyl-1-[4-(4,5-dimethyl-oxazol-2-yl)-cyclohexyl]-5,6-dihydro-4H-2,3,5,10b-tetraaza-benzo[e]azulene]
The Ki of the first is 6.5-fold higher: 5.5 nM for the first, 0.851 nM for the second.

Going from `CC(C)(C)OC(=O)N1Cc2cc(Cl)ccc2-n2c(nnc2[C@H]2CC[C@H](c3nccs3)CC2)C1` [Example 13, trans-8-Chloro-1-(4-thiazol-2-yl-cyclohexyl)-4H,6H-2,3,5,10b-tetraaza-benzo[e]azulene-5-carboxylic acid tert-butyl ester] to `Cc1csc([C@H]2CC[C@H](c3nnc4n3-c3ccc(Cl)cc3CN(C(=O)OC(C)(C)C)C4)CC2)n1` [Example 16, trans-8-Chloro-1-[4-(4-methyl-thiazol-2-yl)-cyclohexyl]-4H,6H-2,3,5,10b-tetraaza-benzo[e]azulene-5-carboxylic acid tert-butyl ester], the Ki falls from 1 nM to 0.302 nM (3.3-fold).

First: Clc1ccc2c(c1)CNCc1nnc([C@H]3CC[C@H](c4nccs4)CC3)n1-2 [Example 14, trans-8-Chloro-1-(4-thiazol-2-yl-cyclohexyl)-5,6-dihydro-4H-2,3,5,10b-tetraaza-benzo[e]azulene]
Second: CN1Cc2cc(Cl)ccc2-n2c(nnc2[C@H]2CC[C@H](c3nccs3)CC2)C1 [Example 15, trans-8-Chloro-5-methyl-1-(4-thiazol-2-yl-cyclohexyl)-5,6-dihydro-4H-2,3,5,10b-tetraaza-benzo[e]azulene]
The Ki of the first is 8.5-fold higher: 28.2 nM for the first, 3.31 nM for the second.

Going from `Cc1csc([C@H]2CC[C@H](c3nnc4n3-c3ccc(Cl)cc3CNC4)CC2)n1` [Example 17, trans-8-Chloro-1-[4-(4-methyl-thiazol-2-yl)-cyclohexyl]-5,6-dihydro-4H-2,3,5,10b-tetraaza-benzo[e]azulene] to `Cc1nc([C@H]2CC[C@H](c3nnc4n3-c3ccc(Cl)cc3CNC4)CC2)cs1` [Example 20, trans-8-Chloro-1-[4-(2-methyl-thiazol-4-yl)-cyclohexyl]-5,6-dihydro-4H-2,3,5,10b-tetraaza-benzo[e]azulene], the Ki rises from 7.59 nM to 12.3 nM (1.6-fold).

`Cc1csc([C@H]2CC[C@H](c3nnc4n3-c3ccc(Cl)cc3CN(C)C4)CC2)n1` [Example 18, trans-8-Chloro-5-methyl-1-[4-(4-methyl-thiazol-2-yl)-cyclohexyl]-5,6-dihydro-4H-2,3,5,10b-tetraaza-benzo[e]azulene] and `Cc1cc([C@H]2CC[C@H](c3nnc4n3-c3ccc(Cl)cc3CN(C)C4)CC2)no1` [Example 24, trans-8-Chloro-1-[4-(5-methyl-isoxazol-3-yl)-cyclohexyl]-5-methyl-5,6-dihydro-4H-2,3,5,10b-tetraaza-benzo[e]azulene] are within 1.5-fold of each other in Ki: 1.7 nM for the first, 1.2 nM for the second.

Going from `Cc1nc([C@H]2CC[C@H](c3nnc4n3-c3ccc(Cl)cc3CN(C(=O)OC(C)(C)C)C4)CC2)cs1` [Example 19, trans-8-Chloro-1-[4-(2-methyl-thiazol-4-yl)-cyclohexyl]-4H,6H-2,3,5,10b-tetraaza-benzo[e]azulene-5-carboxylic acid tert-butyl ester] to `Cc1cc([C@H]2CC[C@H](c3nnc4n3-c3ccc(Cl)cc3CN(C(=O)OC(C)(C)C)C4)CC2)no1` [Example 22, trans-8-Chloro-1-[4-(5-methyl-isoxazol-3-yl)-cyclohexyl]-4H,6H-2,3,5,10b-tetraaza-benzo[e]azulene-5-carboxylic acid tert-butyl ester], the Ki rises from 0.2 nM to 0.302 nM (1.5-fold).

First: Cc1cc([C@H]2CC[C@H](c3nnc4n3-c3ccc(Cl)cc3CNC4)CC2)no1 [Example 23, trans-8-Chloro-1-[4-(5-methyl-isoxazol-3-yl)-cyclohexyl]-5,6-dihydro-4H-2,3,5,10b-tetraaza-benzo[e]azulene hydrochloride]
Second: CCN1Cc2cc(Cl)ccc2-n2c(nnc2[C@H]2CC[C@H](c3cc(C)on3)CC2)C1 [Example 25, trans-8-Chloro-5-ethyl-1-[4-(5-methyl-isoxazol-3-yl)-cyclohexyl]-5,6-dihydro-4H-2,3,5,10b-tetraaza-benzo[e]azulene]
The Ki of the first is 3.7-fold higher: 6.46 nM for the first, 1.74 nM for the second.

`Cc1cc([C@H]2CC[C@H](c3nnc4n3-c3ccc(Cl)cc3CN(CC(F)F)C4)CC2)no1` [Example 28, trans-8-Chloro-5-(2,2-difluoro-ethyl)-1-[4-(5-methyl-isoxazol-3-yl)-cyclohexyl]-5,6-dihydro-4H-2,3,5,10b-tetraaza-benzo[e]azulene] gave a Ki of 0.603 nM.
